The record followed here is patent US9776979B2, “EBI2 modulators” (Sanford-Burnham Medical Research Institute, priority 2013, dated 2017).

pIC50: −log10 of the molar value.

The first experiment deals with EBI2 (Homo sapiens, UniProt P32249). Put plainly: Cell-based luminescent assay (EBI2 modulation).
Sequence of EBI2 (P32249 whole entry): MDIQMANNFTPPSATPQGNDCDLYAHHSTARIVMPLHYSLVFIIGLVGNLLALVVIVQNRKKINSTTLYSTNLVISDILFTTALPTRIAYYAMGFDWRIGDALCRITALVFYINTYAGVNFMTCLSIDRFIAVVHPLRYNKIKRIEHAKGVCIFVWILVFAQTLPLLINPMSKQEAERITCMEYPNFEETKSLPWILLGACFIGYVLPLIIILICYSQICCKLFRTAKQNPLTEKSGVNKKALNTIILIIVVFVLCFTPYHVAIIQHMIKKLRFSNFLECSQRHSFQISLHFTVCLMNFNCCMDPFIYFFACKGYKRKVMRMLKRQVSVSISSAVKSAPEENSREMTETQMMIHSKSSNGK
Conditions: not given
In outline:
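Cells plated overnight at 37° C, then exposed to compound at 4-5 uM final with 80 nM 7a,25-OHC agonist for 60 min at 37° C. Luminescence read after 60 min detection at 25° C in the dark; values normalized to neutral and stimulator controls and plate-pattern corrected.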
As usually defined, the pIC50 is the IC50 on a negative log10 scale, so that one unit is a factor of ten. Take `O=C(c1cc2cc(Cl)ccc2[nH]1)N1CCC(Nc2ccc(F)cc2)CC1` [Compound C226, 5-chloroindol-2-yl 4-[(4-fluorophenyl)amino]piperidyl ketone]: the pIC50 is above 7.00.

With `O=C(/C=C/c1ccc(Br)cc1)N1CCC(Nc2cc(F)cc(F)c2)CC1` [Compound C15, (2E)-1-{4-[(3,5-difluorophenyl)amino]piperidyl}-3-(4-bromophenyl)prop-2-en-1-one], the pIC50 is above 7.00.

The experiment is the same for the next values; noted with them: cell-based luminescence; 7a,25-OHC final assay concentration 80 nM; 60 minutes incubation; read-out: IC50.
With `O=C(c1cnc2ccccc2c1)N1CCN(C(c2ccccc2)c2ccccc2)CC1` [Compound C125, 4-(diphenylmethyl)piperazinyl 3-quinolyl ketone], the negative-log IC50 (pIC50) was above 7.00.

As to `COc1ccc(-c2ccc(S(=O)(=O)N3CCN(C(=O)c4cc5cc(Cl)ccc5[nH]4)CC3)cc2)cc1` [Compound C421, 5-chloroindol-2-yl 4-{[4-(4-methoxyphenyl)phenyl]sulfonyl}piperazinyl ketone], the pIC50 is 6.30 to 7.00.

`COc1ccc(CN2CCN(C(=O)C#Cc3cccc(Cl)c3)CC2)cc1` [Compound C473, 3-(3-chlorophenyl)-1-{4-[(4-methoxyphenyl)methyl]piperazinyl}prop-2-yn-1-one]: the pIC50 was 6.30 to 7.00.

In the case of `O=C(c1cc2cccc([N+](=O)[O-])c2[nH]1)N1CCN(C(c2ccccc2)c2ccccc2)CC1` [Compound C178, 4-(diphenylmethyl)piperazinyl 7-nitroindol-2-yl ketone], the pIC50 was 5.30 to 6.30.

Take `O=C(C=Cc1ccc2c(c1)OCO2)N1CCN(Cc2ccc(Cl)cc2)CC1` [Compound C297, 3-(2H-benzo[3,4-d]1,3-dioxolan-5-yl)-1-{4-[(4-chlorophenyl)methyl]piperazinyl}prop-2-en-1-one]: the pIC50 is 6.30 to 7.00.

As for “3-(3,4-dichlorophenyl)-1-[4-(diphenylmethyl)piperazinyl]prop-2-yn-1-one [Compound C77]”, the pIC50 is above 7.00.

In the case of “4-(diphenylmethyl)piperazinyl 6-bromoindol-2-yl ketone [Compound C108]”, the pIC50 was above 7.00.

On to `Cc1ccc(/C=C/C(=O)N2CCN(C(c3ccccc3)c3ccccc3)CC2)cc1` [Compound C453, (2E)-1-[4-(diphenylmethyl)piperazinyl]-3-(4-methylphenyl)prop-2-en-1-one], for which the pIC50 was 6.30 to 7.00.

For `O=C(/C=C/c1ccc(F)cc1)N1CCN(S(=O)(=O)/C=C/c2ccccc2)CC1` [Compound C95], the pIC50 was above 7.00.

In the case of `O=C(C#Cc1ccc(Br)cc1)N1CCN(C(=O)c2ccc(F)cc2)CC1` [Compound C70, 3-(4-bromophenyl)-1-{4-[(4-fluorophenyl)carbonyl]piperazinyl}prop-2-yn-1-one], the pIC50 was above 7.00.

As to `O=C(/C=C/c1ccccc1)N1CCN(Cc2ccc(Br)cc2)CC1` [Compound C203, (2E)-1-{4-[(4-bromophenyl)methyl]piperazinyl}-3-phenylprop-2-en-1-one], the pIC50 is above 7.00.

As to `COc1ccc(C(=O)N2CCN(C(=O)C#Cc3ccc(Cl)c(Cl)c3)CC2)cc1` [Compound C12, 3-(3,4-dichlorophenyl)-1-{4-[(4-methoxyphenyl)carbonyl]piperazinyl}prop-2-yn-1-one], the pIC50 was above 7.00.

With `O=C(NCC1CCN(C(=O)/C=C/c2ccc(Br)cc2)CC1)c1ccc(C(F)(F)F)cc1` [Compound F3, (E)-N-((1-(3-(4-bromophenyl)acryloyl)piperidin-4-yl)methyl)-4-(trifluoromethyl)benzamide], the pIC50 was above 7.00.

As to `O=C(C#Cc1ccc(F)cc1)N1CCN(Cc2ccc(Cl)cc2)CC1` [Compound C461, 1-{4-[(4-chlorophenyl)methyl]piperazinyl}-3-(4-fluorophenyl)prop-2-yn-1-one], the pIC50 was 6.30 to 7.00.

Turning to “4-(diphenylmethyl)piperazinyl indol-6-yl ketone [Compound C370]”, the pIC50 was above 7.00.

With `Cc1ccccc1/C=C/C(=O)N1CCN(S(=O)(=O)c2ccccc2)CC1` [Compound C196, (2E)-3-(2-methylphenyl)-1-[4-(phenylsulfonyl)piperazinyl]prop-2-en-1-one], the negative logarithm of the IC50 (pIC50) was 5.30 to 6.30.

Take `O=C(c1cc2cc(Cl)ccc2[nH]1)N1CCC(NC2CCCC2)CC1` [Compound C449, 5-chloroindol-2-yl 4-(cyclopentylamino)piperidyl ketone]: the pIC50 was 6.30 to 7.00.

In the case of `O=C(C#Cc1ccccc1)N1CCN(C(=O)c2ccc(Br)cc2)CC1` [Compound C65, 1-{4-[(4-bromophenyl)carbonyl]piperazinyl}-3-phenylprop-2-yn-1-one], the pIC50 was above 7.00.

For the compound `Cc1ccc(NC2CCN(C(=O)c3cc4cc(Cl)ccc4[nH]3)CC2)cc1C` [Compound C322, 4-[(3,4-dimethylphenyl)amino]piperidyl 5-chloroindol-2-yl ketone], the pIC50 was above 7.00.

Turning to `COc1cc2cc(C(=O)N3CCN(C(c4ccccc4)c4ccccc4)CC3)[nH]c2cc1OC` [Compound C280, 5,6-dimethoxyindol-2-yl 4-(diphenylmethyl)piperazinyl ketone], the pIC50 was 6.30 to 7.00.

On to `O=C(/C=C/c1ccc(F)cc1)N1CCCN(C(c2ccccc2)c2ccccc2)CC1` [Compound C192, (2E)-1-[4-(diphenylmethyl)(1,4-diazaperhydroepinyl)]-3-(4-fluorophenyl)prop-2-en-1-one], for which the pIC50 was 5.30 to 6.30.

Consider `O=C(c1cc2cc(Cl)ccc2[nH]1)N1CCN(C(=O)c2nc3ccccc3[nH]2)CC1` [Compound C288, 4-(benzimidazol-2-ylcarbonyl)piperazinyl 5-chloroindol-2-yl ketone], for which the pIC50 is 6.30 to 7.00.

Turning to “6-bromoindol-2-yl 4-[(4-chlorophenyl)methyl]piperazinyl ketone [Compound C471]”, the pIC50 was 6.30 to 7.00.

For `Cn1c(C(=O)N2CCN(C(=O)OC(C)(C)C)CC2)cc2ccccc21` [Compound C286, tert-butyl 4-[(1-methylindol-2-yl)carbonyl]piperazinecarboxylate], the pIC50 was 6.30 to 7.00.

As for `O=C(/C=C/c1ccc(F)cc1)N1CCN(S(=O)(=O)c2ccccc2F)CC1` [Compound C237, (2E)-3-(4-fluorophenyl)-1-{4-[(2-fluorophenyl)sulfonyl]piperazinyl}prop-2-en-1-one], the pIC50 was above 7.00.

Take “4-(diphenylmethyl)piperazinyl 5-bromobenzo[b]thiophen-2-yl ketone [Compound C207]”: the pIC50 is above 7.00.

In the case of `O=C(/C=C/c1ccc(F)cc1)N1CCN(S(=O)(=O)c2ccccc2)CC1` [Compound C205, (2E)-3-(4-fluorophenyl)-1-[4-(phenylsulfonyl)piperazinyl]prop-2-en-1-one], the pIC50 was above 7.00.

For the compound `COc1ccc(C(=O)N2CCN(C(=O)C#Cc3ccc(Cl)cc3)CC2)cc1` [Compound C7, 3-(4-chlorophenyl)-1-{4-[(4-methoxyphenyl)carbonyl]piperazinyl}prop-2-yn-1-one], the pIC50 was above 7.00.

Turning to `O=C(c1cc2ccccc2o1)N1CCN(Cc2ccc3c(c2)OCO3)CC1` [Compound C452, 4-(2H-benzo[d]1,3-dioxolan-5-ylmethyl)piperazinyl benzo[d]furan-2-yl ketone], the pIC50 is 6.30 to 7.00.

On to “1-{4-[(4-bromophenyl)methyl]piperazinyl}-3-(4-chlorophenyl)prop-2-yn-1-one [Compound C383]”, for which the pIC50 is above 7.00.

With `O=C(/C=C/c1ccc(F)cc1)N1CCN(S(=O)(=O)c2cccs2)CC1` [Compound C367, (2E)-3-(4-fluorophenyl)-1-[4-(2-thienylsulfonyl)piperazinyl]prop-2-en-1-one], the pIC50 was above 7.00.

For the compound `O=C(c1ccc(C(F)(F)F)cc1)N1CCN(C(=O)c2cc3cc(C(F)(F)F)ccc3[nH]2)CC1` [Compound C133, 5-(trifluoromethyl)indol-2-yl 4-{[4-(trifluoromethyl)phenyl]carbonyl}piperazinyl ketone], the pIC50 was above 7.00.

With “3-(3,5-difluorophenyl)-1-{4-[(4-methoxyphenyl)carbonyl]piperazinyl}prop-2-yn-1-one [Compound C467]”, the pIC50 is 6.30 to 7.00.

With `O=C(/C=C/c1ccc([N+](=O)[O-])cc1)N1CCN(C(c2ccccc2)c2ccccc2)CC1` [Compound C63, (2E)-1-[4-(diphenylmethyl)piperazinyl]-3-(4-nitrophenyl)prop-2-en-1-one], the pIC50 is above 7.00.

On to `O=C(/C=C/c1ccc(Br)cc1)N1CCN(Cc2ccc(Cl)cc2C(F)(F)F)CC1` [Compound C91, (2E)-3-(4-bromophenyl)-1-(4-{[4-chloro-2-(trifluoromethyl)phenyl]methyl}piperazinyl)prop-2-en-1-one], for which the pIC50 is above 7.00.

On to `O=C(c1ccc(F)cc1)N1CCN(C(=O)c2cc3cc(Br)ccc3[nH]2)CC1` [Compound C135, 5-bromoindol-2-yl 4-[(4-fluorophenyl)carbonyl]piperazinyl ketone], for which the pIC50 was above 7.00.

Turning to `O=C(c1cc2cc(Cl)ccc2[nH]1)N1CCN(Cc2ccc(C(F)(F)F)cc2)CC1` [Compound C331, 5-chloroindol-2-yl 4-{[4-(trifluoromethyl)phenyl]methyl}piperazinyl ketone], the pIC50 is above 7.00.

Regarding `Cc1cc(C)c(S(=O)(=O)N2CCN(C(=O)/C=C/c3ccc(Br)cc3)CC2)c(C)c1` [Compound E1, (2E)-3-(4-bromophenyl)-1-{4-[(2,4,6-trimethylphenyl)sulfonyl]piperazinyl} prop-2-en-1-one], the pIC50 is above 7.00.

In the case of `N#Cc1ccccc1S(=O)(=O)N1CCN(C(=O)/C=C/c2ccc(F)cc2)CC1` [Compound C341, 2-({4-[(2E)-3-(4-fluorophenyl)prop-2-enoyl]piperazinyl}sulfonyl)benzenecarbonitrile], the pIC50 was above 7.00.

On to `O=C(c1nc2ccccc2s1)N1CCN(C(c2ccccc2)c2ccccc2)CC1` [Compound C168, benzothiazol-2-yl 4-(diphenylmethyl)piperazinyl ketone], for which the pIC50 was 5.30 to 6.30.

`O=C(c1cc2cc(Br)ccc2[nH]1)N1CCN(Cc2ccc(C(F)(F)F)cc2)CC1` [Compound C371, 5-bromoindol-2-yl 4-{[4-(trifluoromethyl)phenyl]methyl}piperazinyl ketone]: the pIC50 was above 7.00.
